# Where a name gives a salt, the structure may show the parent alone.
# Columns and labels:
# [1] = test system: Western diet fed Sprague Dawley rats; experiment: Plasma triglycerides (fed and fasted) in Western diet fed Sprague Dawley rats; format: in vivo, rat; conditions: 4 hour fast
# Protocol: (§1) A randomized, vehicle-controlled, 8-parallel arm study was conducted in male Sprague-Dawley rats (Charles River (Boston, MA)) to obtain circulating and hepatic TG levels. Standard laboratory conditions were used to house 96 rats (˜200 g); they were double housed and kept under 12:12-hour reverse light-dark schedule (lights off at 8:00 AM). Rats were randomized into chow or Western diet groups and dose groups upon arrival and were given a 14-day lead-in period on either standard rat chow or Western diet prior to the start of the study. Standard Laboratory Rodent chow diet, 5053, was from LabDiet (PMI, St Louis, Missouri). Western Diet, D12079Bi, was from Research Diets (New Brunswick, NJ).
# (§2) For these studies, vehicle was prepared to make a 0.5% (wt/volume) of methyl cellulose (MC, Sigma Aldrich; 274429) in deionized water.
# Fed plasma analytes: Blood for determining fed plasma TG concentrations was collected 2 hours post dose (2 hours into the dark cycle) via lateral tail vein, transferred to BD Microtainer tubes coated with dipotassium ethylenediaminetetraacetic acid (K2EDTA) (PN365974), and centrifuged at 4° C. The resulting plasma samples were then analyzed on a Siemens Chemistry XPT clinical analyzer (Malven, PA) using Siemens triglycerides_2 assay reagents (ref 10335892).
# Fasted plasma analytes: Blood for determining fasted plasma TG was collected after a 4 hour fast, 2 hours post-dose (2 hours into the dark cycle) via lateral tail vein, transferred to BD Microtainer tubes coated with K2EDTA (PN365974), and centrifuged at 4° C. The resulting plasma samples were then analyzed on a Siemens Chemistry XPT clinical analyzer (Malven, PA) using Siemens triglycerides 2 assay reagents (ref 10335892).
# [2] = test system: Western diet fed Sprague Dawley rats; experiment: Hepatic triglyceride (steatosis) in Western diet fed rats; format: in vivo, rat; conditions: or both, Day 28
# Protocol: as §1, §2
# On the last day of the study (Day 28), rats were sacrificed for tissue collection after a 4 hour fast, 2 hours post-dose: two hours post-dose, blood for determining plasma analytes was collected via lateral tail vein and then the animals were sacrificed by CO2 asphyxiation. Blood was transferred to BD Microtainer tubes coated with K2EDTA (PN365974), centrifuged at 4° C. and the plasma transferred to a 96-well microtitre plate and stored at −20° C. Livers were rapidly removed, freeze-clamped in a Wollenberg clamp pre-cooled in liquid N2 individually wrapped in aluminum foil and subsequently stored at −80° C.
# Tissue pulverization: Frozen livers were rapidly pulverized on an aluminum block cooled in liquid N2, ensuring the tissue remained frozen throughout the pulverization. The pulverized tissues were transferred and stored in 7 mL polypropylene conical tubes at −80° C. until analysis.
# Extraction for hepatic triglyceride: Approximately 50 to 100 mg of pulverized tissue was added to a 2 mL lysing matrix D tube (MP Bio) containing 800 μL ice cold 1:1 CHCl3:MEOH. Samples were immediately extracted at 4° C. using Qiagen Tissue Lyser II (Qiagen Cat No. 85300) for 4 minutes at 30 Hz. The homogenate was then transferred to 13×100 mm glass tubes and placed on ice. The lysis tubes were then rinsed with 800 μL of 1:1 CHCl3:MeOH, vortexed for 30 seconds and added to the 13×100 mm glass tubes. While on ice, 2.4 ml of 100% CHCl3 was added to all glass vials to bring the ratio of CHCl3:MeOH to 4:2. Samples were then placed in the −20° C. freezer overnight. On the following day, 1.75 mL 1M KCl H2O was added to bring the ratio to 4:2:1.75 ratio CHCl3:MeOH:H2O. Samples were then vortexed for 30 seconds and centrifuged at 1500 rpm×15 min., at 4° C. After centrifugation, the organic phase was transferred to a fresh 13×100 mm extraction tube, dried down at 37° C. under N2 and re-suspended in 750 μL CHCl3. […]
# SREBP-1 = experiment: Nuclear SREBP-1 localization in liver of Western diet fed rats (Western blot); format: in vivo, rat; conditions: high dose monotherapy (A 10 mg/kg QD; D 30 mg/kg BID); pooled liver samples
# Protocol: as §1, with “NJ). […]” for “NJ).”
# Nuclear and Membrane fractions were prepared by ultracentrifugation using standard methods from a portion of the pulverized liver samples, that were pooled per treatment group. Samples from the nuclear extract and the membrane fractions were analyzed by Western blotting for SREBP1. […] Nuclear SREBP1 levels were quantified using relative units and normalized to Histone 2B to control for sample loss during the nuclear fractionation and gel loading.
# [3] = test system: ACC1, FASN, SCD1, PCSK9 and SREBP-1c; experiment: Hepatic lipogenic gene expression in Western diet fed rats (qPCR); format: in vivo, rat; conditions: Compound A: ACC1, FASN (high dose only), SCD, but not PCSK9 and SREBP1
# Protocol: as §1
# On the last day of the study (Day 28), rats were sacrificed for tissue collection after a 4 hour fast, 2 hours post-dose: two hours post-dose, blood for determining plasma analytes was collected via lateral tail vein and then the animals were sacrificed by CO2 asphyxiation. Blood was transferred to BD Microtainer tubes coated with K2EDTA (PN365974), centrifuged at 4° C. and the plasma transferred to a 96-well microtitre plate and stored at −20° C. […]
# Another portion of the pulverized liver was processed and analyzed for lipogenic gene expression. Rat taqman probes against ACC1, FASN, SCD1, PCSK9 and SREBP-1c were all assessed using Actb as housekeeping gene on qPCR.
# αSMA and COL1A1 = experiment: Hepatic fibrogenesis gene expression in CDAHFD fed rats (qPCR); format: in vivo, rat; conditions: A 5 mg/kg, D 30 mg/kg twice daily, 6 weeks
# Description: Standard laboratory conditions were used to house 60 rats (˜200 g); they were double housed and kept under 12:12-hour reverse light-dark schedule (lights off at 8:00 AM). Rats were fed choline deficient and high fat diet (CDAHFD) beginning 6-weeks prior to initiation of the study. […] Animals (n=12) remaining on normal chow throughout the study and administered twice-daily vehicle were used as a control group. Blood samples were collected prior to starting compound administration and 3- and 6-week post compound administration for the assessment of circulating markers. Shearwave elastography (Aixplorer Ultimate imager, Supersoinc imagine) measurements were made at Week −3, Week 0 (prior to 1st dose), Week 3 and Week 6 to assess inflammation and fibrosis progression over time. Histology was assessed following 6-weeks of drug administration which corresponded to 12 weeks on the CDAHFD. Results are provided as an average of animals per each dosing group.
# Following the 12-weeks on CDAHFD, the animals were sacrificed by CO2 asphyxiation. The right lateral, medial and left lateral lobes of the liver were harvested. Sections were taken from the left lateral, right medial and right lateral lobes and fixed in formalin and processed to paraffin blocks per animal. One section of left lateral lobe per animal was cryopreserved in optimal cutting temperature (OCT) compound. The remainder of the liver from each animal was frozen and rapidly pulverized on an aluminum block cooled in liquid N2, ensuring the tissue remained frozen throughout the pulverization. The pulverized tissue was transferred and stored at −80° C. until analysis. A portion of the pulverized liver sample from each animal was processed and analyzed for gene expression markers of fibrogenesis. Rat taqman probes against αSMA and COL1A1 were all assessed using Actb as housekeeping gene on qPCR.
# [4] = Thermodynamic stability of crystalline forms versus water activity; format: physicochemical; conditions: ambient temperature; about 0.2 = 20% RH
# [5] = high dose: A 10 mg/kg QD, D 30 mg/kg BID
# [6] = low dose: A 1 mg/kg QD, D 5 mg/kg BID
SMILES,"increase in fasted plasma TG, relative to vehicle administered Western diet fed rats ([1]; high dose: Compound A 10 mg/kg QD monotherapy)","increase in fasted plasma TG, relative to vehicle administered Western diet fed rats ([1]; low dose: Compound A 1 mg/kg QD monotherapy)","reduction in steatosis (hepatic triglyceride), relative to vehicle administered Western diet fed rats [2, 5]","reduction in steatosis (hepatic triglyceride), relative to vehicle administered Western diet fed rats [2, 6]",nuclear SREBP-1 localization relative to vehicle treated Western diet fed rats (SREBP-1),"hepatic lipogenic gene expression (ACC1, FASN, SCD1, SREBP-1c, PCSK9) relative to Western diet fed vehicle treated animals [3]",hepatic COL1A1 gene expression (αSMA and COL1A1),hepatic αSMA gene expression (αSMA and COL1A1),"reduction of fasted plasma TG, relative to vehicle administered Western diet fed rats ([1]; high dose: Compound D 30 mg/kg BID monotherapy)","reduction of fasted plasma TG, relative to vehicle administered Western diet fed rats ([1]; low dose: Compound D 5 mg/kg BID monotherapy)",water activity at which the form is thermodynamically stable [4]
"COc1cc(C(=O)N2CCC3(CC2)CC(=O)c2c(cnn2C(C)C)C3)cc(-c2ccc(C(=O)O)cc2)n1 [Compound A, 4-(4-(1-isopropyl-7-oxo-1,4,6,7-tetrahydrospiro[indazole-5,4′-piperidine]-1′-carbonyl)-6-methoxypyridin-2-yl)benzoic acid]",1.7 fold,2.4 fold,53%,36%,increased nuclear localization of SREBP-1,trended to further increase,reduced hepatic αSMA and COL1A1 gene expression,reduced hepatic αSMA and COL1A1 gene expression,,,
"CCOc1cccnc1Oc1cncc(-c2ncc(C(=O)N[C@H]3CCOC3)cn2)c1 [Compound D, (S)-2-(5-((3-ethoxypyridin-2-yl)oxy)pyridin-3-yl)-N-(tetrahydrofuran-3-yl)pyrimidine-5-carboxamide]",,,30%,25%,reduced SREBP-1 nuclear localization,decreased expression of all of the lipogenic genes,reduced hepatic αSMA and COL1A1 gene expression,reduced hepatic αSMA and COL1A1 gene expression,35%,20%,
"COc1cc(C(=O)N2CCC3(CC2)CC(=O)c2c(cnn2C(C)C)C3)cc(-c2ccc(C(=O)O)cc2)n1 [Form 1 of Compound A, 4-(4-(1-isopropyl-7-oxo-1,4,6,7-tetrahydrospiro[indazole-5,4′-piperidine]-1′-carbonyl)-6-methoxypyridin-2-yl)benzoic acid anhydrous tris salt]",,,,,,,,,,,< 0.2
COc1cc(C(=O)N2CCC3(CC2)CC(=O)c2c(cnn2C(C)C)C3)cc(-c2ccc(C(=O)O)cc2)n1 [Form 2 of Compound A],,,,,,,,,,,> 0.2

# From patent US12472180B2, “Combinations for treatment of NAFLD/NASH and related diseases” (Pfizer Inc., priority 2020, dated 2025)
